Assay: gradient 5% acetonitrile 3 min, to 50% in 2 min, to 85% in 15 min, held 3 min, 100 µL/min
Settings: column: Zorbax Extend-C18 2.1 x 50 mm; eluents: water / acetonitrile, 0.1% formic acid
In short: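 Pure standards were analyzed in mixtures of ~100 molecules using HPLC coupled to a quadrupole time-of-flight mass spectrometer, in both positive and negative ionization mode. Separation used a Zorbax Extend-C18 column (2.1 × 50 mm, 1.8 μm) at 100 μL/min, with water and acetonitrile each containing 0.1% formic acid. Dead and dwell volumes were 40 μL and 900 μL, and data were collected over 3 months. Retention time was read from computationally picked adduct peaks, each inspected manually.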

| Compound | RP-LC retention time [s] |
| --- | --- |
| CCN1CCN(c2cc(C)c3cc(NC(=S)N4CCN(c5ccccc5F)CC4)ccc3n2)CC1 | 620 |
| CCCNC(=O)CCc1cc2cc(OC)ccc2[nH]c1=O | 634 |
| CC(C)C(=O)OC[C@H]1O[C@@H](n2ccc(N)nc2=O)[C@](C)(F)[C@@H]1OC(=O)C(C)C | 799 |
| O=C1NCCC1Cc1ccc(C(F)(F)F)cc1 (stereo not drawn) | 710 |
| O=C(CCC1CCCN(C(=O)Nc2ccccc2)C1)NCc1ccc(F)cc1F (stereo not drawn) | 816 |
| Cc1ccc(NC(=O)Cn2ccc3sccc3c2=O)c(C)c1 | 766 |
| CCCNC(=O)C1CCN(c2ccc(SCC(=O)Nc3c(C)cccc3Cl)nn2)CC1 | 1160 |
| O=C(CN1C(=O)CCC1=O)Nc1cccc(NC(=O)CN2C(=O)CCC2=O)c1 | 692 |
| N#Cc1cccc(CN2CCC(c3nncn3-c3ccccc3)CC2)c1 | 584 |
| CC(=O)Nc1ccc2c(c1)CN(C(=O)c1ccc(C#N)cc1)C(C(=O)N(C)C)C2 (stereo not drawn) | 619 |
| Cc1cc(=O)n(CC(=O)Nc2cccc(C(F)(F)F)c2)c(N2CCN(c3ccccc3)CC2)n1 | 969 |
| Cc1nc2cc(N3CCC(C(=O)NCCC4=CCCCC4)CC3)cnc2nc1C | 767 |
| Cc1ccc(C(=O)N(c2ccc(Br)cc2)C2C=CS(=O)(=O)C2)cc1 (stereo not drawn) | 835 |
| Cc1ccc(C(C)C)cc1NC(=O)Nc1ccc([N+](=O)[O-])cc1 | 1160 |
| CN1C(=O)Cc2cc(NC(=O)c3cccs3)ccc21 | 631 |
| O=C(CSc1nnc2c3sc(N4CCCC4)nc3ncn12)Nc1cccc(Cl)c1 | 874 |
| CCSc1ccccc1C(=O)NCC1(CO)CC1 | 640 |
| CC(CCNC(=O)Cn1c2ccccc2c2cnn(C)c(=O)c21)N1CCCC1 (stereo not drawn) | 595 |
| Cc1cn(C)c(CC(=O)NCCCN2CCCCCC2)c1C(=O)O | 593 |
| CCCc1cc(N2CCN(C(=O)c3cccnc3)CC2)nc2nnc(CC)n12 | 580 |
| Cc1cc(=O)n(CC(=O)Nc2ccccc2)c(N2CCOCC2)n1 | 628 |
| COc1cccc(CNC(=O)C2(C)CCCN(C(=O)Nc3cccc(F)c3)C2)c1 (stereo not drawn) | 872 |
| CN(C(=O)C1CCCN(c2ncnc3c2nc2n3CCCCC2)C1)c1ccccc1F (stereo not drawn) | 785 |
| CCn1cnc(S(=O)(=O)N2CCCC(C(=O)Nc3ccc(Cl)cc3C)C2)c1 (stereo not drawn) | 795 |
| Cc1cc(N2CCC(NC(=O)NCc3cccc(F)c3)C2=O)ccc1F (stereo not drawn) | 903 |
| O=C1NCCOCCN(S(=O)(=O)c2cccc3cccnc23)[C@@H]2CCCC[C@H]12 | 735 |
| O=C(CN1CCN(Cc2ccc(F)cc2)C(=O)C1=O)NCc1ccc2c(c1)OCO2 | 780 |
| O=C(c1ccccc1Cl)N1CCN(c2cc(-c3ccccc3)[nH]n2)CC1 | 804 |

| Compound | RP-LC retention time [s] |
| --- | --- |
| CCc1ccc(NS(=O)(=O)c2cc3c4c(c2)CCC(=O)N4CCC3)cc1 | 906 |
| O=C(NC1CC1)C1CCN(c2nc3ccc(-c4ccc(F)cc4)nc3s2)CC1 | 878 |
| Cc1cc(-n2nnc(C(=O)N3CCC4(CC3)OCCO4)c2-c2ccncc2)ccc1F | 715 |
| CN(C)C(=O)c1csc(S(=O)(=O)N2CCC(C(=O)NCc3ccc4c(c3)OCO4)CC2)c1 | 714 |
| COc1ccc(Cl)cc1C(=O)NCC(O)C1CCCCC1 (stereo not drawn) | 863 |
| O=C(Cn1c(=O)oc2ccccc21)N1CCc2nn(CC3CC3)c(=O)n2CC1 | 682 |
| O=c1n(Cc2cc(F)cc(F)c2)nc2c(S(=O)(=O)N3CCCCCC3)cccn12 | 973 |
| COc1ccc(OCC(=O)N2CCN(c3cc(=O)n(C(C)C)c(=O)n3C(C)C)CC2)cc1 | 846 |
| O=C([C@@H]1C[C@H](F)CN1C(=O)Nc1cccc(F)c1)N1CCOCC1 | 628 |
| CCC(=O)N1CCC(N2C(=O)C(O)C23CCCCC3)CC1 (stereo not drawn) | 590 |
| Cc1cc(C)c2c(N(C)C)nc(C(=O)NCCN(C)C3CCCCC3)nc2n1 | 562 |
| Cc1ccc(Sc2nccnc2N2CCCC(C(=O)NC3CCCCCC3)C2)cc1 (stereo not drawn) | 1250 |
| CCOC(=O)N1CCN(C(=O)Cc2c(C)nn(-c3nc(-c4ccc(Cl)cc4)cs3)c2C)CC1 | 1110 |
| Cc1c(N2CCC(C(=O)NCC3CCCO3)CC2)c(=O)n(C)c(=O)n1-c1ccccc1 (stereo not drawn) | 691 |
| CCS(=O)(=O)N1CCc2c(c(CN(C(=O)c3ccc(F)cc3)c3ccccc3)nn2C)C1 | 804 |
| CCc1cccc(NC(=O)CN2C(=O)CCc3cc(S(=O)(=O)N4CCCCC4C)ccc32)c1 (stereo not drawn) | 998 |
| CC(C)N1CCn2cc(S(=O)(=O)Nc3ccccc3F)cc2C1=O | 730 |
| CCOC(=O)N1CCN(c2nc(F)c(F)c(S(=O)(=O)CCNc3ccccc3)c2F)CC1 | 1010 |
| CCOc1cc2c(cc1OCC)C1C(C(=O)N3CCN(C)CC3)c3ccccc3C(=O)N1CC2 (stereo not drawn) | 567 |
| CN1c2cc(C(=O)NCCCc3ccccc3)ccc2C(=O)N2CCCCC21 (stereo not drawn) | 885 |
| CC(=O)N1c2ccc(S(=O)(=O)NCc3ccc4c(c3)CCN4C(=O)C(C)C)cc2CC1C (stereo not drawn) | 801 |
| CCOc1ccc(S(=O)(=O)N2CCC(C(=O)Nc3ccc(F)c(Cl)c3)CC2)cc1 | 1030 |
| O=C(NCCN1CCCCCC1)C1CCN(c2nc3cccnc3s2)CC1 | 598 |
| CC(C)CNS(=O)(=O)c1ccc(-c2nnc(C3CC3)o2)o1 | 809 |
| Cc1oc(C2CCN(C(=O)Nc3ccc(F)cc3)CC2)nc1C(=O)N(C)C | 684 |
| COc1cccc(CNC(=O)NCCC2CCN(S(=O)(=O)c3ccc(C)cc3)CC2)c1 | 873 |
| CC(C)CNC(=O)c1nn(-c2ccc(F)cc2)nc1CO | 888 |

Continued, values first:

| RP-LC retention time [s] | Compound |
| --- | --- |
| 683 | COCCCNC(=O)CSc1nccc2c1ccn2Cc1ccccc1 |
| 640 | CCc1nc(N)n(CC(=O)Nc2cc(C)ccc2OC)c(=O)c1C |
| 1060 | COc1ccc(CC(=O)N2CCc3cc(-c4csc(C)n4)ccc32)cc1 |
| 1140 | CCC(C)NC(=O)c1c(O)c2cccnc2n(-c2ccc(OC)cc2)c1=O (stereo not drawn) |
| 763 | COCCN1C(=O)CCc2cc(NS(=O)(=O)c3ccccc3Br)ccc21 |
| 672 | CCc1nc2c(c(=O)n1CC(=O)Nc1ccc(C)cc1)CN(Cc1ccccc1)CC2 |
| 986 | CCc1noc(-c2nc(-c3ccccc3OC)no2)n1 |
| 734 | Cc1ccc(C)c(NC(=O)Cn2c(C(C)C)nc3c(c2=O)CCN(Cc2ccccc2)C3)c1 |
| 1230 | Cc1ccccc1-c1csc(Nc2ccc(Br)cn2)n1 |
| 670 | COc1ccc2nc3oc(C(=O)N4CCN(Cc5ccc6c(c5)OCO6)CC4)cc3cc2c1 |
| 847 | Cc1nc2c(SCC(=O)Nc3ccc4c(c3)OCO4)nnc(-c3ccccc3)c2s1 |
| 1160 | COc1ccccc1N1CCN(S(=O)(=O)c2cc(-c3csc(C)n3)ccc2C)CC1 |
| 1090 | COc1ccc(-c2noc(CSc3nc4cc5c(cc4c(=O)n3CC3CCCO3)OCO5)n2)cc1 (stereo not drawn) |
| 919 | CCOC(=O)c1nc(N(CCC(=O)OC)c2ccccc2)c2ccccc2n1 |
| 990 | Cc1ccc(S(=O)(=O)N2CC=C(c3cn(C)c4ncccc34)CC2)cc1 |
| 743 | COc1ccc(-c2noc(-c3ccc(=O)n(Cc4ccccn4)c3)n2)cc1OC |
| 1170 | COc1ccc(-c2noc(-c3nnn4c3COC(c3ccc(C)cc3C)C4)n2)c(OC)c1 (stereo not drawn) |

| RP-LC retention time [s] | Compound |
| --- | --- |
| 899 | COC(=O)c1cc(OCC(=O)Nc2ccc(Cl)cc2)c2cc(OC)ccc2n1 |
| 621 | CCN1CCC2(CC1)N=C(c1ccc(Cl)cc1)CC(c1cccc(OC)c1O)N2 (stereo not drawn) |
| 843 | CCOC(=O)C1CCN(c2nc(=O)n(CC(=O)Nc3ccc(C)cc3)c3ccccc23)CC1 |
| 1330 | CCc1ccc(-c2csc(Nc3ccc(Br)cn3)n2)cc1 |
| 563 | CCOC(=O)C1CCN(Cc2cn3c(-c4ccc(OC)cc4)nnc3s2)CC1 |
| 1050 | COc1ccc(NC(=O)C2CCCN(c3nccnc3Sc3ccccc3)C2)cc1F (stereo not drawn) |
| 610 | COc1ccc(NC(=O)c2nnc(COCC(=O)N3CCN(c4ccccn4)CC3)s2)cc1 |
| 1260 | Cn1nccc1C(=O)Nc1ccsc1-c1nc(-c2ccc(F)cc2)no1 |
| 859 | CSc1ccccc1NC(=O)c1cc(=O)c(OCc2ccc(F)cc2)co1 |
| 1220 | O=C(CCc1nc(-c2ccc(N3CCCC3)cc2)no1)Nc1ccc(Br)cc1F |
| 1240 | CCc1ccccc1NC(=O)c1cc(C(C)C)n2nccc2n1 |
| 667 | COc1cccc(C(=O)Nc2c(-c3ccc(F)cc3)nc3ccccn23)c1OC |
| 808 | Cc1ccc2c(c1)cc(S(=O)(=O)c1ccccc1)c(=O)n2CC(=O)NC(C)C |
| 1320 | CC(C)c1ccc(-n2ncc3c(=O)n(Cc4nc(-c5ccc(Cl)cc5)no4)cnc32)cc1 |
| 590 | Cc1cc(NCc2ccccn2)n2c(nc3ccccc32)c1C#N |
| 578 | CCCNC(=O)c1ccc(-c2nc3cc(NS(=O)(=O)c4cnc[nH]4)ccc3n2C)cc1 |

— the METLIN SMRT retention time set (Domingo-Almenara et al. 2019)
